Here are results for five compounds from US7888379B2, “Thiazole derivatives and use thereof” (Merck Serono SA, priority 2005, dated 2011).

In test [1] the target is Human recombinant GST-PI3Kγ (Homo sapiens, UniProt P48736). Kind of test: High Throughput PI3K Lipid Kinase Assay (SPA, neomycin-coated beads). In kind it is biochemical. From the text: a) High Throughput PI3K Lipid Kinase Assay (Binding Assay):
The efficacy of compounds of the invention in inhibiting the PI3K induced-lipid phosphorylation may be tested in the following binding assay
The assay combines the scintillation proximity assay technology (SPA, Amersham) with the capacity of neomycin (a polycationic antibiotic) to bind phospholipids with high affinity and specificity. The Scintillation Proximity Assay is based on the properties of weakly emitting isotopes (such as ^3H, ^125I, ^33P). Coating SPA beads with neomycin allows the detection of phosphorylated lipid substrates after incubation with recombinant PI3K and radioactive ATP in the same well, by capturing the radioactive phospholipids to the SPA beads through their specific binding to neomycin.
To a 384 wells MTP containing 5 μl of the test compound of Formula (I) (solubilized in 6% DMSO; to yield a concentration of 100, 30, 10, 3, 1, 0.3, 0.1, 0.03, 0.01, 01 μM of the test compound), the following assay components are added. 1) 5 μl (58 ng) of Human recombinant GST-PI3Kγ (in Hepes 40 mM, pH 7.4, DTT 1 mM and ethylenglycol 5%) 2) 10 μl of lipid micelles and 3) 10 μl of Kinase buffer ([^33P]γ-ATP 45 μM/60 nCi, MgCl2 30 mM, DTT 1 mM, β-Glycerophosphate 1 mM, Na3VO4 100 μM, Na Cholate 0.3%, in Hepes 40 mM, pH 7.4). After incubation at room temperature for 180 minutes, with gentle agitation, the reaction is stopped by addition of 60 μl of a solution containing 100 μg of neomycin-coated PVT SPA beads in PBS containing ATP 10 mM and EDTA 5 mM. The assay is further incubated at room temperature for 60 minutes with gentle agitation to allow binding of phospholipids to neomycin-SPA beads. After precipitation of the neomycin-coated PVT SPA beads for 5 minutes at 1500×g, radioactive PtdIns(3)P is quantified by scintillation counting in a Wallac MicroBeta™ plate counter.
The values indicated in Table I below refer to the IC50 (nM) with respect to PI3Kγ, i.e. the amount necessary to achieve 50% inhibition of said target. Said values show a considerable inhibitory potency of thiazole compounds with regard to PI3Kγ.

Another test has as its system Akt/PKB phosphorylation. Kind of test: Cell based ELISA to monitor PI3K inhibition: Akt/PKB phosphorylation in Raw 264-7 macrophages after Complement 5a stimulation. The following applies: Mus musculus, RAW264.7, phospho Serine 473 Akt, read-out: Cell Assay (P-Akt, Elisa) IC50. How it is done: b) Cell Based ELISA to Monitor PI3K Inhibition:
The efficacy of compounds of the invention in inhibiting the PI3K induced Akt/PKB phosphorylation may be tested in the following cell based assay.
Measurement of Akt/PKB phosphorylation in macrophages after stimulation with Complement 5a: Raw 264: Raw 264-7 macrophages (cultured in DMEM-F12 medium containing 10% Fetal Calf serum and antibiotics) are plated at 20'000 cells/well in a 96 MTP 24 h before cell stimulation. Prior to the stimulation with […] of Complement 5a during 5 minutes, Cells are serum starved for 2 h, and pretreated with inhibitors for 20 minutes. After stimulation cells are fixed in 4% formaldehyde for 20 minutes and washed 3 times in PBS containing 1% Triton X-100 (PBS/Triton). […] Next, phosphorylated Akt/PKB is detected by an overnight incubation at 4° C. with primary antibody (anti phospho Serine 473 Akt IHC, Cell Signaling) diluted 800-fold in PBS/Triton, containing 5% bovine serum albumin (BSA). After 3 washes in PBS/Triton, cells are incubated for 60 minutes with a peroxidase conjugated goat-anti-rabbit secondary antibody (1/400 dilution in PBS/Triton, containing 5% BSA), washed 3 times in PBS/Triton, and 2 times in PBS and further incubated in 100 μl of luminescent substrate reagent solution (Pierce) for 2 minutes, followed by the reading (1 s/well). […]
Background: In an ELISA, binding on a coated surface is turned into a signal by an enzyme label.

A further test has as its system Neutrophils recruitment. Kind of test: Thioglycollate-induced peritoneal cavity cell recruitment model. Format: in vivo. To be noted: at 10 mg/kg after 4 hours, oral, female C3H mice, thioglycollate i.p. The method, then: Thioglycollate-induced Peritoneal Cavity Cell Recruitment Model
The in vivo efficacy of compounds of the invention in inhibiting the migration of leukocytes upon intraperitoneal challenge of thioglycollate may be tested with the following assay.
8-10 weeks old female C3H mice are fasted during 18 hours. 15 minutes prior the intraperitoneal injection of thioglycollate (1.5%, 40 ml/kg), the mice are treated orally with Thiazoles of Formula (I). Control mice receive CMC/Tween as vehicle (10 ml/kg). The mice are then sacrificed by CO2 inhalation and the peritoneal cavity is washed two times with 5 ml of ice-cold PBS/1 mM EDTA. The ravages are done 4 hours or 48 hours after thioglycollate challenge to evaluate neutrophils or macrophages recruitment, respectively. The white blood cells (neutrophils, lymphocytes or macrophages) are counted using a Beckman Coulter® A°T 5diff™.
Dexamethasone is used as reference drug.

By IC50 is commonly meant the concentration that gives 50% inhibition.

Sequence of Human recombinant GST-PI3Kγ (P48736 whole entry): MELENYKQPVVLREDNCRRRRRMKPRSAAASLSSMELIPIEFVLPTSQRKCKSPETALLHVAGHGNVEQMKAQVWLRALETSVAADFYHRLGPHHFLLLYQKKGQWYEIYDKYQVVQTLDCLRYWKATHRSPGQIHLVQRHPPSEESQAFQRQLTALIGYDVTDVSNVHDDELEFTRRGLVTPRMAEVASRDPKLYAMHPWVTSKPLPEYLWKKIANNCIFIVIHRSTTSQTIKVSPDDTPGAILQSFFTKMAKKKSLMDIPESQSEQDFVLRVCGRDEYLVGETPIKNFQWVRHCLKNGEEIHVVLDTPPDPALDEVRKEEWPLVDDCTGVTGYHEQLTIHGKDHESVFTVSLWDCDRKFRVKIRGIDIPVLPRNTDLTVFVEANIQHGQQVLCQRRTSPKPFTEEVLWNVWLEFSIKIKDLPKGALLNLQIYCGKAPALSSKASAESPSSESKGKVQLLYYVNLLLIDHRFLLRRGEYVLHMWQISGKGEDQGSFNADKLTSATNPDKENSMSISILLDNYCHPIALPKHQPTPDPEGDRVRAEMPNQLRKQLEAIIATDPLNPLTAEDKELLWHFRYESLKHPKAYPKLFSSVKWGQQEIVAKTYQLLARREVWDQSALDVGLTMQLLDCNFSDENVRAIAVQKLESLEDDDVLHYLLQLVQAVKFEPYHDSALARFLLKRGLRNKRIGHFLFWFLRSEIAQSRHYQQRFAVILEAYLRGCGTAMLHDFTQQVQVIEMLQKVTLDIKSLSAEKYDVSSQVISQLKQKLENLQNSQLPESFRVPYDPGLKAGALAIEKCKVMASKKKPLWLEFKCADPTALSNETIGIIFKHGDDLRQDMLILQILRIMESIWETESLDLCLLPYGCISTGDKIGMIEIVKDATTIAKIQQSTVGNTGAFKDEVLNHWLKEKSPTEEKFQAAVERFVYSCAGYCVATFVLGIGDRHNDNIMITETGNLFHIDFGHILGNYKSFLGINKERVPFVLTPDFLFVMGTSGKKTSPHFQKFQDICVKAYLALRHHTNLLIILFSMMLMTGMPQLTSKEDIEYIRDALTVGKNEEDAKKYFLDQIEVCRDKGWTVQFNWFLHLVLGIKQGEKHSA

As for `CC(=O)Nc1nc(C)c(-c2ccc(C=O)s2)s1` [Example 1, N-[5-(5-formyl-2-thienyl)-4-methyl-1,3-thiazol-2-yl]acetamide], the IC50 in test [1] was found to be 215 nM.

Regarding `CC(=O)Nc1nc(C)c(-c2ccc(CO)s2)s1` [Example 3, N-[5-[5-(hydroxymethyl)-2-thienyl]-4-methyl-1,3-thiazol-2-yl]acetamide], in test [1], the IC50 is 219 nM.

Regarding `CC(=O)Nc1nc(C)c(-c2ccc(C(=O)N3CCOCC3)s2)s1` [Example 5], the IC50 in test [1] turned out to be 249 nM.

With `CC(=O)Nc1nc(C)c(-c2ccc(C(=O)N3CCCC(O)C3)s2)s1` (stereo not drawn) [Example 8, N-(5-{5-[(3-hydroxypiperidin-1-yl)carbonyl]-2-thienyl}-4-methyl-1,3-thiazol-2-yl)acetamide], the IC50 in test [1] amounted to 1100 nM.

Regarding `C=CCNS(=O)(=O)c1ccc(-c2sc(NC(C)=O)nc2C)s1` [Example 12, N-(5-[5-{(allylamino)sulfonyl]-2-thienyl}-4-methyl-1,3-thiazol-2-yl) acetamide], in the test with Akt/PKB phosphorylation, the IC50 was determined as 322 nM. Also, the “% of inhibition of Neutrophils recruitment” value with Neutrophils recruitment came to 38%.
